Data taken from patent publication US6858632B2, “Derivatives of isosorbide mononitrate and its use as vasodilating agents with reduced tolerance” (Lacer, S.A., priority 1998, dated 2005).
“Also recorded” adds a separate entry of the source. Structures can show the parent of a compound that is named as a salt. Where two headings read alike, the source gives them in different places.

How the values were obtained:
[1] = tested on: arterial ring previously contracted with 1 μM of Norepinephrine; test: Test of vasodilatation (arterial rings pre-contracted with norepinephrine); conditions: for EC50: read-out: CE50 (concentration effective 50), vasodilatation of 50% of the arterial ring (average ± SD)
Protocol: The method used in the assays is substantially the same as described in following references: • Furchgot, R. F. “Methods in nitric oxide research”. Feelisch & Stamler eds. John Wiley & Sons, Chichester, England, pp 567-581. • Trongvanichnam, K, et al. Jpn J. Pharmacol. 1996; 71:167-173. • Salas, E., et al. Eur. J. Pharmacol. 1994; 258:47-55.
(§1) The different compounds are tested at 5 different concentrations, at a concentration range from 0.001 to 10 mM, using from 6 to 9 arterial rings for each compound. The obtained results are compared to those from the isosorbide 5-mononitrate, which is used as reference product.
The results are shown in table 1 below and are provided as CE50 (concentration effective 50), which is the concentration of each of the tested compounds wherein there is produced a vasodilatation of 50% of the arterial ring previously contracted with 1 μM of Norepinephrine.

[2] = tested on: arterial segments of the rats; test: Assay of tolerance (ex vivo vasodilatation of arterial segments after subcutaneous administration for three days); type: in vivo; conditions: for development of tolerance (in words): rats, 10 mg/Kg s.c. each eight hours for three days
Protocol: The different compounds tested are subcutaneously administered to rats at a dose of 10 mg/Kg for three days, each eight hours, and the assay is then done ex vivo to test the capacity to vasodilate the arterial segments of the rats after the subcutaneous administration of the compound.
The method followed is substantially the same as described in following references: • De Garavilla, L., et al. Eur. J. Pharmacol. 1996; 313:89-96. • Keith, R. A., et al. J. Pharmacol. Exp. Ther. 1982; 221:525-531.
as §1, with “product, and with those obtained from the animals wherein there have not been administered any compound.” for “product.”

[3] = arterial ring previously contracted with 1 μM Norepinephrine, 6 to 9 rings, 0.001 to 10 mM

Structure (SMILES) | EC50 [1, 3] | EC50 ([2]; Group A: rats not given any compound, ex vivo arterial rings, read-out: CE50, animals without any compound administrated during three days (Group A) (average ± SD)) | CE50 in treated animals relative to CE50 in not treated animals (times) ([2]; Group B versus Group A) | EC50 ([2]; Group B: rats given compound subcutaneously, 10 mg/Kg each eight hours for three days, ex vivo arterial rings, read-out: CE50, animals with compound administrated during three days (Group B) (average ± SD)) | development of tolerance (in words) [2] | EC50 ([2]; Rattus norvegicus, sc, 72 h, Group A: rats not given any compound, ex vivo arterial rings, read-out: CE50, animals without any compound administrated during three days (Group A) (average ± SD)) | EC50 at 10 mg/kg ([2]; Rattus norvegicus, sc, Group B: rats given compound subcutaneously, 10 mg/Kg each eight hours for three days, ex vivo arterial rings, read-out: CE50, animals with compound administrated during three days (Group B) (average ± SD)) | development of tolerance (in words) ([2]; 10 mg/kg) | EC50 [1] | vasodilating activity compared with the reference product (in words) ([1]; reference: isosorbide 5-mononitrate) | EC50 ([2]; Rattus norvegicus, sc, 72 h, read-out: CE50, animals without any compound administrated during three days (Group A) (average ± SD)) | EC50 at 10 mg/kg ([2]; Rattus norvegicus, sc, read-out: CE50, animals with compound administrated during three days (Group B) (average ± SD))
O=[N+]([O-])O[C@@H]1CO[C@H]2[C@@H]1OC[C@@H]2O [isosorbide 5-mononitrate, reference compound] | 920 ± 200 µM | 920 ± 200 µM | seven | 6500 ± 1500 µM | strong developments of tolerance |  |  |  |  |  |  | 
CC(=O)S[C@H]1CO[C@H]2[C@@H]1OC[C@H]2O[N+](=O)[O-] [Compound 5, 2-acetylmercaptoisosorbide 5-mononitrate] | 950 ± 100 µM |  |  |  |  | 950 ± 100 µM | 990 ± 100 µM | development of less tolerance as compared to the reference product; also recorded: practically null |  |  |  | 
CCSc1ncccc1C(=O)O[C@H]1CO[C@H]2[C@@H]1OC[C@H]2O[N+](=O)[O-] [Compound 1, isosorbide 2-(2′-ethylthio)nicotinate 5-mononitrate hydrochloride] |  |  |  |  | development of less tolerance as compared to the reference product |  |  |  | 130 ± 10 µM | superior to that of the reference product | 130 ± 10 µM | 590 ± 100 µM
